Assay results published in PubChem BioAssay AID256 (DTP/NCI, 2004).
Values joined by “and” are separate entries in the source; they are usually repeats but may differ in a detail not shown here. Identical values can stand only once. Toxic doses and inconclusive results are not listed.

Test system: CD2F1 mice, L1210 leukemia ip, survival T/C
Assay: NCI In Vivo Anticancer Drug Screen. Data for tumor model L1210 Leukemia (intraperitoneal) in CD2F1 (CDF1) mice
Details: higher = longer survival
Procedure, shortened: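 Transplantable tumor in mice; compound-treated vs vehicle-treated groups. Read-out = treated/control ratio of the measured endpoint.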

In the case of O=P1(N(CCCl)CCCl)NCCCO1 (centres undefined), the T/C (endpoint: mean survival time, dose: 10.0 mg/kg/injection, schedule: Q01DX009 (ip), vehicle: saline) is reported as 124 % of control, the T/C (endpoint: mean survival time, dose: 12.5 mg/kg/injection, schedule: Q01DX005 (ip), vehicle: water) is reported as 120 % of control and 122 % of control and the T/C (endpoint: mean survival time, dose: 12.5 mg/kg/injection, schedule: Q01DX009 (ip), vehicle: saline) is reported as 114 % of control and 123 % of control. For the same molecule, the T/C (endpoint: mean survival time, dose: 20.0 mg/kg/injection, schedule: Q01DX009 (ip), vehicle: saline) was 122 % of control, the T/C (endpoint: mean survival time, dose: 20.0 mg/kg/injection, schedule: Q03DX003 (ip), vehicle: saline) was 124 % of control and the T/C (endpoint: mean survival time, dose: 20.0 mg/kg/injection, schedule: Q04DX003 (ip), vehicle: saline) was 114 % of control and 115 % of control. The T/C (endpoint: mean survival time, dose: 25.0 mg/kg/injection, schedule: Q01DX001 (ip), vehicle: DMSO) was 115 % of control, the T/C (endpoint: mean survival time, dose: 30.0 mg/kg/injection, schedule: Q04DX003 (ip), vehicle: water) was 113 % of control and the T/C (endpoint: mean survival time, dose: 31.3 mg/kg/injection, schedule: Q01DX001 (ip), vehicle: DMSO) was 114 % of control. The T/C (endpoint: mean survival time, dose: 31.3 mg/kg/injection, schedule: Q01DX001 (ip), vehicle: saline) was 113 % of control, the T/C (endpoint: mean survival time, dose: 38.9 mg/kg/injection, schedule: Q01DX001 (ip), vehicle: water) was 119 % of control and the T/C (endpoint: mean survival time, dose: 40.0 mg/kg/injection, schedule: Q01DX007 (ip), vehicle: saline) was 163 % of control. The T/C (endpoint: mean survival time, dose: 40.0 mg/kg/injection, schedule: Q01DX009 (ip), vehicle: saline) was 170 % of control, the T/C (endpoint: mean survival time, dose: 40.0 mg/kg/injection, schedule: Q03DX003 (ip), vehicle: saline) was 151 % of control and the T/C (endpoint: mean survival time, dose: 40.0 mg/kg/injection, schedule: Q04DX003 (ip), vehicle: saline) was 155 % of control. The T/C (endpoint: mean survival time, dose: 50.0 mg/kg/injection, schedule: Q01DX001 (ip), vehicle: DMSO) was 117 % of control, the T/C (endpoint: mean survival time, dose: 50.0 mg/kg/injection, schedule: Q01DX001 (ip), vehicle: Klucel (hydroxypropylcellulose) (HPC)) was 113 % of control and the T/C (endpoint: mean survival time, dose: 50.0 mg/kg/injection, schedule: Q01DX001 (ip), vehicle: other) was 115 % of control. For the same molecule, the T/C (endpoint: mean survival time, dose: 50.0 mg/kg/injection, schedule: Q01DX009 (ip), vehicle: saline) was 165 % of control and 173 % of control, the T/C (endpoint: mean survival time, dose: 62.5 mg/kg/injection, schedule: Q01DX001 (ip), vehicle: Klucel (hydroxypropylcellulose) (HPC)) was 122 % of control and the T/C (endpoint: mean survival time, dose: 62.5 mg/kg/injection, schedule: Q01DX001 (ip), vehicle: saline with Tween-80) was 124 % of control. The T/C (endpoint: mean survival time, dose: 62.5 mg/kg/injection, schedule: Q01DX001 (ip), vehicle: water) was 121 % of control and 122 % of control, the T/C (endpoint: mean survival time, dose: 80.0 mg/kg/injection, schedule: Q03DX003 (ip), vehicle: saline) was 192 % of control and the T/C (endpoint: mean survival time, dose: 80.0 mg/kg/injection, schedule: Q04DX003 (ip), vehicle: saline) was 187 % of control. The T/C (endpoint: mean survival time, dose: 100.0 mg/kg/injection, schedule: Q01DX001 (ip), vehicle: DMSO) was 158 % of control, the T/C (endpoint: mean survival time, dose: 108.0 mg/kg/injection, schedule: Q01DX001 (ip), vehicle: saline) was 164 % of control and the T/C (endpoint: mean survival time, dose: 108.0 mg/kg/injection, schedule: Q01DX001 (ip), vehicle: water) was 169 % of control. The T/C (endpoint: mean survival time, dose: 125.0 mg/kg/injection, schedule: Q01DX001 (ip), vehicle: Klucel (hydroxypropylcellulose) (HPC)) was 170 % of control, the T/C (endpoint: mean survival time, dose: 125.0 mg/kg/injection, schedule: Q01DX001 (ip), vehicle: saline with Tween-80) was 150 % of control and 159 % of control and the T/C (endpoint: mean survival time, dose: 125.0 mg/kg/injection, schedule: Q01DX001 (ip), vehicle: water) was 156 % of control and 173 % of control. The T/C (endpoint: mean survival time, dose: 133.0 mg/kg/injection, schedule: Q01DX001 (ip), vehicle: saline) was 167 % of control, the T/C (endpoint: mean survival time, dose: 135.0 mg/kg/injection, schedule: Q01DX001 (ip), vehicle: saline) was 158 % of control and 171 % of control and the T/C (endpoint: mean survival time, dose: 150.0 mg/kg/injection, schedule: Q01DX001 (ip), vehicle: water) was 172 % of control. For the same molecule, the T/C (endpoint: mean survival time, dose: 160.0 mg/kg/injection, schedule: Q01DX009 (ip), vehicle: saline) was 124 % of control, the T/C (endpoint: mean survival time, dose: 180.0 mg/kg/injection, schedule: Q01DX001 (ip), vehicle: water) was 176 % of control and the T/C (endpoint: mean survival time, dose: 196.0 mg/kg/injection, schedule: Q01DX001 (ip), vehicle: saline) was 201 % of control. The T/C (endpoint: mean survival time, dose: 200.0 mg/kg/injection, schedule: Q01DX001 (ip), vehicle: Klucel (hydroxypropylcellulose) (HPC)) was 164 % of control and 198 % of control, the T/C (endpoint: mean survival time, dose: 200.0 mg/kg/injection, schedule: Q01DX001 (ip), vehicle: other) was 189 % of control and the T/C (endpoint: mean survival time, dose: 200.0 mg/kg/injection, schedule: Q01DX005 (ip), vehicle: water) was 191 % of control. The T/C (endpoint: mean survival time, dose: 200.0 mg/kg/injection, schedule: Q04DX003 (ip), vehicle: saline) was 205 % of control, the T/C (endpoint: mean survival time, dose: 250.0 mg/kg/injection, schedule: Q01DX001 (ip), vehicle: saline with Tween-80) was 190 % of control and the T/C (endpoint: mean survival time, dose: 250.0 mg/kg/injection, schedule: Q01DX001 (ip), vehicle: water) was 188 % of control and 261 % of control and 280 % of control. For the same molecule, the T/C (endpoint: mean survival time, dose: 320.0 mg/kg/injection, schedule: Q04DX003 (ip), vehicle: saline) was 117 % of control, the T/C (endpoint: mean survival time, dose: 400.0 mg/kg/injection, schedule: Q01DX001 (ip), vehicle: Klucel (hydroxypropylcellulose) (HPC)) was 187 % of control and the T/C (endpoint: mean survival time, dose: 400.0 mg/kg/injection, schedule: Q01DX001 (ip), vehicle: other) was 183 % of control. The T/C (endpoint: mean survival time, dose: 450.0 mg/kg/injection, schedule: Q01DX001 (ip), vehicle: saline) was 209 % of control, the T/C (endpoint: mean survival time, dose: 500.0 mg/kg/injection, schedule: Q01DX001 (ip), vehicle: Klucel (hydroxypropylcellulose) (HPC)) was 173 % of control and the T/C (endpoint: mean survival time, dose: 500.0 mg/kg/injection, schedule: Q01DX001 (ip), vehicle: saline with Tween-80) was 197 % of control. For the same molecule, the T/C (endpoint: mean survival time, dose: 500.0 mg/kg/injection, schedule: Q01DX001 (ip), vehicle: water) was 253 % of control and 223 % of control and 271 % of control, the T/C (endpoint: median survival time, dose: 12.5 mg/kg/injection, schedule: Q01DX009 (ip), vehicle: saline) was 120 % of control and 122 % of control and the T/C (endpoint: median survival time, dose: 20.0 mg/kg/injection, schedule: Q01DX009 (ip), vehicle: water) was 121 % of control. The T/C (endpoint: median survival time, dose: 25.0 mg/kg/injection, schedule: Q01DX001 (ip), vehicle: saline) was 117 % of control and 118 % of control, the T/C (endpoint: median survival time, dose: 25.0 mg/kg/injection, schedule: Q01DX001 (ip), vehicle: water) was 113 % of control and the T/C (endpoint: median survival time, dose: 31.25 mg/kg/injection, schedule: Q01DX001 (ip), vehicle: water) was 116 % of control and 119 % of control (2×). For the same molecule, the T/C (endpoint: median survival time, dose: 40.0 mg/kg/injection, schedule: Q01DX009 (ip), vehicle: water) was 153 % of control, the T/C (endpoint: median survival time, dose: 50.0 mg/kg/injection, schedule: Q01DX005 (ip), vehicle: saline) was 169 % of control and the T/C (endpoint: median survival time, dose: 50.0 mg/kg/injection, schedule: Q01DX009 (ip), vehicle: saline) was 178 % of control and 182 % of control. For the same molecule, the T/C (endpoint: median survival time, dose: 50.0 mg/kg/injection, schedule: Q03DX003 (ip), vehicle: saline) was 162 % of control, the T/C (endpoint: median survival time, dose: 62.5 mg/kg/injection, schedule: Q01DX001 (ip), vehicle: water) was 151 % of control and the T/C (endpoint: median survival time, dose: 66.0 mg/kg/injection, schedule: Q07DX003 (sc), vehicle: saline) was 155 % of control and 162 % of control. The T/C (endpoint: median survival time, dose: 100.0 mg/kg/injection, schedule: Q01DX001 (ip), vehicle: water) was 155 % of control and 160 % of control, the T/C (endpoint: median survival time, dose: 100.0 mg/kg/injection, schedule: Q01DX009 (ip), vehicle: saline) was 114 % of control and the T/C (endpoint: median survival time, dose: 100.0 mg/kg/injection, schedule: Q03DX003 (ip), vehicle: saline) was 202 % of control. For the same molecule, the T/C (endpoint: median survival time, dose: 108.0 mg/kg/injection, schedule: Q01DX001 (iv), vehicle: saline) was 171 % of control, the T/C (endpoint: median survival time, dose: 125.0 mg/kg/injection, schedule: Q01DX001 (ip), vehicle: water) was 183 % of control and the T/C (endpoint: median survival time, dose: 150.0 mg/kg/injection, schedule: Q01DX001 (ip), vehicle: saline) was 169 % of control. The T/C (endpoint: median survival time, dose: 250.0 mg/kg/injection, schedule: Q01DX001 (ip), vehicle: water) was 173 % of control, the T/C (endpoint: median survival time, dose: 330.0 mg/kg/injection, schedule: Q07DX003 (ip), vehicle: saline) was 210 % of control and the T/C (endpoint: median survival time, dose: 450.0 mg/kg/injection, schedule: Q01DX001 (ip), vehicle: saline) was 154 % of control.

With C#CC1(NC(=O)NC(C)(C)C)CCCCC1 the T/C (endpoint: mean survival time, dose: 100.0 mg/kg/injection, schedule: Q01DX009 (ip), vehicle: saline with Tween-80) was 93 % of control and the T/C (endpoint: mean survival time, dose: 200.0 mg/kg/injection, schedule: Q01DX009 (ip), vehicle: saline with Tween-80) was 86 % of control.

CN1C(=O)CCSC1=S was tested, and the T/C (endpoint: mean survival time, dose: 25.0 mg/kg/injection, schedule: Q04DX002 (ip), vehicle: saline with Tween-80) was 94 % of control, the T/C (endpoint: mean survival time, dose: 50.0 mg/kg/injection, schedule: Q04DX002 (ip), vehicle: saline with Tween-80) was 105 % of control and the T/C (endpoint: mean survival time, dose: 100.0 mg/kg/injection, schedule: Q04DX002 (ip), vehicle: saline with Tween-80) was 105 % of control.
